Key:
PGD2 Receptor [1] = biological target: T1, PGD2 Receptor (Homo sapiens, UniProt Q13258); assay: Binding to PGD2 Receptor (human platelet membrane fraction, [3H]PGD2); conditions: 5 nM [3H]PGD2, pH 7.4, 4° C., 90 min, read-out: Inhibitory activity IC50
T1 construct: endogenous in cells; host or cells: washed human platelets from a healthy volunteer
T1 sequence (Q13258 1-359): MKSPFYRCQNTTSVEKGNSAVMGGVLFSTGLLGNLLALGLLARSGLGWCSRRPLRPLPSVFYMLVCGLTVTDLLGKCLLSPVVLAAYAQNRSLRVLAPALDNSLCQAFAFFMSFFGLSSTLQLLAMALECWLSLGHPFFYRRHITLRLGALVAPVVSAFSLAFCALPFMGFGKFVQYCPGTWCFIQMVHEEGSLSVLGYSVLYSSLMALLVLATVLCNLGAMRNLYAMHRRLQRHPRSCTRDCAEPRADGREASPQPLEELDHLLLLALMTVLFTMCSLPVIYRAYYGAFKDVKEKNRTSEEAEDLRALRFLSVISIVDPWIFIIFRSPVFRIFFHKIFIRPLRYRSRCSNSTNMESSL
Experimental: (1) Preparation of Human Platelet Membrane Fraction
Blood was collected using a plastic syringe containing 3.8% sodium citrate from the vein of healthy volunteers (adult male and female), then put into a plastic test tube and mixed by slow-reversion. The sample was then centrifuged at 1800 rpm. for 10 min at room temperature, and the supernatant containing PRP (platelet-rich plasma) was collected. The PRP was re-centrifuged at 2300 rpm, for 22 min at room temperature to obtain platelets. The platelets were homogenized using a homogenizer (Ultra-Turrax) followed by centrifugation 3 times at 20,000 rpm, 10 min at 4° C. to obtain a platelet membrane fraction. After protein determination, the membrane fraction was adjusted to 2 mg/ml and preserved in a refrigerator at -80° C. until using for the binding test.
(2) Binding to PGD2 Receptor.
To a binding-reaction solution (50 mM Tris/HCl, pH 7.4, 5 mM MgCl2) (0.2 ml) were added the human platelet membrane fraction (0.1 mg) and 5 nM [^3 H ]PGD2 (115 Ci/mmol), and the mixture was reacted at 4° C. for 90 min. After the reaction, the mixture was filtered through a glass fiber filter paper and washed several times with cooled physiologic saline, then the radioactivity retained on the filter paper was measured. The specific-binding ratio was calculated by subtracting the non-specific binding ratio which is the radio activity similarly measured in the presence of 10 μM PGD2 from the total binding. The inhibitory activity of each compound was expressed as the concentration required for 50% inhibition (IC50), which was determined by depicting a substitution curve by plotting the binding ratio (%) in the presence of each compound, where the binding ratio in the absence of a test compound is 100%.

PGD2 Receptor [2] = biological target: T1, PGD2 Receptor; assay: Antagonistic Activity Against PGD2 Receptor Using Human Platelet (cAMP increased by PGD2); type: cell-based; conditions: inhibition of cAMP increase by 0.1 μM PGD2 in washed human platelets
Experimental: Experiment 2 Evaluation of Antagonistic Activity Against PGD2 Receptor Using Human Platelet
Peripheral blood was collected from a healthy volunteer using a syringe in which 1/9 volume of a citric acid/dextrose solution was previously added. The sample was subjected to centrifugation at 180 g for 10 min to obtain the supernatant (PRP: platelet rich plasma). The resultant PRP was washed 3 times with a washing buffer and the number of platelet was counted with a micro cell counter. A suspension adjusted to contain the platelets at a final concentration of 5×10^8 /ml was warmed at 37° C., then subjected to the pre-treatment with 3-isobutyl-1-methylxanthine (0.5 mM) for 5 min. To the suspension was added a test compound diluted at various concentration, and 10 minutes later, 0.1 μM PGD2 was added to induce the reaction 2 minutes later, hydrochloric acid was added to terminate the reaction. The platelet was destroyed with an ultrasonic homogenizer. After centrifugation, the cAMP in the supernatant was determined by radioimmunoassay. PGD2 receptor antagonism of a drug was evaluated as follows: the inhibition rate regarding cAMP increased by the addition of PGD2 was determined at each concentration, and the concentration of the (drug required for 50% inhibition (IC50) was calculated. The results are shown below.

Hartley male guinea pig = assay: Nasal Blockage Model (intranasal pressure of OVA-sensitized guinea pigs); type: in vivo; conditions: 30 mg/kg orally 60 min before antigen exposure; intranasal pressure AUC 0-30 min vs vehicle
Experimental: Experiment Using Nasal Blockage Model
Recently, It has been paid an attention to a theory that PGD2 is one of causative substances of nasal blockage caused by allergic rhinitis, and proposed to develop an inhibitor of PGD2 biosynthesis or an antagonist to the PGD2 receptor as a drug reducing nasal blockage. Thus, as to the compounds of the present, invention. the anti-nasal blockage effect was evaluated by measuring the intranasal pressure of guinea pigs.
A 1% ovalbumin (OVA) solution was treated with an ultrasonic nebulizer to obtain an aerosol. Hartley male guinea pig was sensitized by inhaling the aerosol twice each or 10 min at one-week interval. Seven days after the sensitization, the guinea pig was exposed to an antigen to initiate the reaction. Briefly, the trachea of he guinea pig was incised under the anesthesia with pentobarbital (30 mg/kg. i.p.) and cannulas were inserted into the trachea at the pulmonary and nasal cavity sides. […] After arresting the spontaneous respiration of the guinea pig with Gallamin (2 mg/kg, i.v.), 4 ml/time of air was supplied to the snout side with an artificial respirator at the frequency of 70 times/min, and the atmospheric pressure required for the aeration was measured by using a transducer fitted at the branch. The measured pressure was used as a parameter of the nasal cavity resistance. […]

TXA2 Receptor = biological target: T2, TXA2 Receptor (Homo sapiens, UniProt P21731); assay: Binding to TXA2 Receptor (human platelet membrane fraction, [3H](+)-S-145 sodium salt); conditions: 2 nM [3H](+)-S-145 sodium salt, pH 7.4, room temperature, 90 min, read-out: Inhibitory activity to TXA2 Receptor: IC50
T2 construct: The human platelet fraction was prepared in accordance with Experiment 1 (1); from tissue; host or cells: human platelets from blood of healthy volunteers (membrane fraction)
T2 sequence (P21731 1-343): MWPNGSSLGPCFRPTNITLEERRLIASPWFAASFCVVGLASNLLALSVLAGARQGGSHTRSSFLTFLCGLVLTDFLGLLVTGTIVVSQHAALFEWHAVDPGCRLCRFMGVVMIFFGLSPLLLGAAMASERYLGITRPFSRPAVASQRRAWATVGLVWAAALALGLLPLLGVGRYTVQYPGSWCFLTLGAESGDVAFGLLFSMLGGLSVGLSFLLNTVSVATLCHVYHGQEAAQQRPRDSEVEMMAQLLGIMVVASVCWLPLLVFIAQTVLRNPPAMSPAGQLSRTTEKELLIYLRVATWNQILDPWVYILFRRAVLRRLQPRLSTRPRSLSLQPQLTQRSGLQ
Experimental: (I) Preparation of Human Platelet Membrane Fraction
The human platelet fraction was prepared in accordance with Experiment 1 (1).
(2) Binding to TXA2 Receptor
To a binding-reaction solution (50 mM Tris/HCl, pH 7.4. 10 mM MgCl2) (0.2 ml) were added the human platelet membrane fraction (0.05 mg) and 2 nM Sodium [^3 H](+)-(5Z)-7-[3-endo-[(phenylsulfonyl)aminol]bicyclo[2.2. 1]hept-2-exo-iy]heptenoate (Japanese Patent Publication (Kokoku) No.79060/1993, hereinafter referred to as (+)-S-145 sodium salt) (26.4 Ci/mmol), and the mixture was reacted at room temperature for 90 min. After the reaction, the resultant mixture was filtered through a glass fiber filter paper and washed several times with cooled physiological saline, then the radioactivity retained on the filter paper was measured. The specific-binding ratio was calculated by subtracting the non-specific binding ratio (the radio activity similarly determined in the presence of 10 μM (+)-S-145 sodium salt) from the total binding. The inhibitory activity of each compound was expressed as the concentration required for 50% inhibition (IC50), which was determined by depicting a substitution curve by plotting the binding ratio (%) in the presence of each compound, where the binding ratio in the absence of a test compound is 100%.

SMILES	IC50 (PGD2 Receptor [1]) [µM]	IC50 (PGD2 Receptor [2]) [µM]	Inhibitory Rate (%) (Hartley male guinea pig)	IC50 (TXA2 Receptor) [µM]
O=C(O)CCC/C=C\C[C@H]1[C@@H]2CC[C@@H](C2)[C@@H]1NC(=O)c1csc2ccc(F)cc12 [Compd. 5, (5Z)-7-{(1R, 2S, 3S, 4S)-3-(5-Fluorobenzo[b]thiophen-3-carbonylamino)-bicyclo[2.2. 1]hept-2-yl}-5-heptenoic acid]	0.057	0.034	–	–
O=C(O)CCC/C=C\C[C@H]1[C@@H]2CC[C@@H](C2)[C@@H]1NC(=O)c1csc2ccc(O)cc12 [Compd. 1, (5Z)-7-{(1R, 2S, 3S, 4S)-3-(5-Hydroxybenzo[b]thiophen-3-carbonylamino)-bicyclo[2.2. 1]hept-2-yl}-5-heptenoic acid]	0.0096	0.0039	74	–
O=C(O)CCC/C=C\C[C@H]1[C@@H]2CC[C@@H](C2)[C@@H]1NC(=O)c1csc2cc(O)ccc12 [Compd. 6]	0.18	0.0082	–	–
O=C(O)CCC/C=C\C[C@@H]1[C@H]2CC[C@H](C2)[C@H]1NC(=O)c1csc2ccc(O)cc12 [Compd. 18, (5Z)-7-{(1S, 2R, 3R, 4R)-3-(5-Hydroxybenzo[b]thiophen-3-carbonylamino)-bicyclo[2.2. 1]hept-2-yl}-5-heptenoic acid]	0.0055	> 1	–	1.8
O=C(O)CCC/C=C\C[C@H]1[C@@H]2CC[C@@H](C2)[C@@H]1NC(=O)c1csc2ccccc12 [Compd. 4, (5Z)-7-{(1R, 2S, 3S, 4S)-3-(Benzo[b]thiophen-3-carbonylamino)-bicyclo[2.2. 1]hept-2-yl}-5-heptenoic acid]	0.0082	0.041	–	3.8
O=C(O)CCC/C=C\C[C@H]1[C@@H]2CC[C@@H](C2)[C@@H]1NC(=O)c1ccsc1 [Compd. 2, (5Z)-7-{(1R, 2S, 3S, 4S)-3-(Thiophen-3-carbonylamino)-bicyclo[2.2.1]hept-2-yl}-5-heptenoic acid]	0.031	0.36	–	–
O=C(O)CCC/C=C\C[C@H]1[C@@H]2CC[C@@H](C2)[C@@H]1NC(=O)c1cccc2ccsc12 [Compd. 3, (5Z)-7-{(1R, 2S, 3S, 4S)-3-(Benzo[b]thiophen-7-carbonylamino)-bicyclo[2.2. 1]hept-2-yl}-5-heptenoic acid]	0.087	0.022	–	–

Source: patent US6225336A, “Compounds having [2.2.1] bicyclo skeleton” (Shionogi & Co., Ltd., priority 1997, dated 2001)
